Legend:
SARS-CoV-2 3CLpro = SARS-CoV-2 3CLpro (Severe acute respiratory syndrome coronavirus 2, UniProt P0DTD1); assay: FRET based protease assay, SARS-CoV-2 3CL; format: biochemical, SARS-CoV-2 (strain BetaCoV/Wuhan/WIV04/2019)
MERS-CoV 3CLpro = MERS-CoV 3CLpro (Middle East respiratory syndrome-related coronavirus, UniProt K9N638); assay: biochemical; settings: MERS IC50, 75 nM MERS-CoV 3CLpro, 6 μM peptide 1 substrate, 25° C., 1.5 hrs, pH 7.5
Sequence of MERS-CoV 3CLpro (K9N638 3248-3553 limits assumed): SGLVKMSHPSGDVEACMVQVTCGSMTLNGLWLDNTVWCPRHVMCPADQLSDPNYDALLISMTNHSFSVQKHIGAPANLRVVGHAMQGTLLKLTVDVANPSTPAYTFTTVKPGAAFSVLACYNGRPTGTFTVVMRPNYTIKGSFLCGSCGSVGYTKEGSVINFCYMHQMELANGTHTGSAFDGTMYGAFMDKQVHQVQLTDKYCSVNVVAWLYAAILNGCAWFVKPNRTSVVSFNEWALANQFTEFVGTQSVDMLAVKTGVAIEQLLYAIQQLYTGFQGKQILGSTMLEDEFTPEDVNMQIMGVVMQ

Row | Structure (SMILES) | IC50 (SARS-CoV-2 3CLpro) | IC50 (MERS-CoV 3CLpro)
1 | CC(C)C[C@H]1C(=O)N[C@H](C#N)C[C@@H]2C(=O)NC[C@@H]2CCCC[C@H](NC(=O)C(C)(C)C)C(=O)N1C [Example 57] | 100 to 1000 nM | 1000 to 20000 nM
2 | CC1(C)[C@@H]2[C@H]3C(=O)N[C@H](C#N)C[C@@H]4C(=O)NC[C@@H]4CCCC[C@H](NS(=O)(=O)C4CC4)C(=O)N3C[C@@H]21 [Example 156] | < 100 nM | < 100 nM
3 | CC(C)(C)C(=O)N[C@H]1CCCC[C@H]2CNC(=O)[C@H]2C[C@@H](C#N)NC(=O)[C@@H]2[C@@H]3[C@H](CN2C1=O)C3(C)C [Example 55] | < 100 nM | 100 to 1000 nM
4 | CC(C)C[C@@H]1NC(=O)CCCCC[C@H]2CNC(=O)[C@H]2C[C@@H](C#N)NC1=O [Example 38] | 1000 to 20000 nM | > 20000 nM
5 | CC(C)(C)OC(=O)N[C@H]1CCCC[C@H]2CNC(=O)[C@H]2C[C@@H](C#N)NC(=O)[C@@H]2[C@H]3CCC[C@H]3CN2C1=O [Example 79] | < 100 nM | 100 to 1000 nM
6 | CC(C)C[C@@H]1NC(=O)[C@@H](C2CCCC2)CCC[C@@H]2CNC(=O)[C@@H]2C[C@@H](C=O)NC1=O [Example 14] | 100 to 1000 nM | 1000 to 20000 nM
7 | CC(C)C[C@@H]1NC(=O)[C@@H](NC(=O)OC(C)(C)C)CCC[C@H]2CNC(=O)[C@H]2C[C@@H](C=O)NC1=O [Example 15] | 100 to 1000 nM | 100 to 1000 nM
8 | N#C[C@@H]1C[C@@H]2C(=O)NC[C@@H]2CCCC[C@H](NC(=O)C2CC(F)(F)C2)C(=O)N2C[C@@H]3CCC[C@@H]3[C@H]2C(=O)N1 [Example 84] | < 100 nM | 100 to 1000 nM
9 | CC(C)(C)C(=O)N[C@H]1CCCC[C@H]2CNC(=O)[C@H]2C[C@@H](C#N)NC(=O)[C@@H]2[C@H]3CCC[C@H]3CN2C1=O [Example 70] | < 100 nM | 100 to 1000 nM
10 | CC(C)(C)OC(=O)N[C@H]1CCCC[C@H]2CCNC(=O)C2C[C@@H](C#N)NC(=O)[C@@H]2[C@H]3CCC[C@H]3CN2C1=O (stereo partly drawn) [Example 98] | 100 to 1000 nM | 100 to 1000 nM
11 | Cc1nc(C(=O)N[C@H]2CCCC[C@H]3CNC(=O)[C@H]3C[C@@H](C#N)NC(=O)[C@@H]3[C@@H]4[C@H](CN3C2=O)C4(C)C)cs1 [Example 113] | 100 to 1000 nM | < 100 nM
12 | CC(C)(C)OC(=O)N[C@H]1CCCC[C@H]2CNC(=O)[C@H]2C[C@@H](C#N)NC(=O)[C@H](CC2CCCC2)NC1=O [Example 137] | < 100 nM | 1000 to 20000 nM
13 | CC1(C)[C@@H]2[C@H]3C(=O)N[C@H](C#N)C[C@@H]4C(=O)NC[C@@H]4CCCC[C@H](NC(=O)c4ccncn4)C(=O)N3C[C@@H]21 [Example 91] | < 100 nM | < 100 nM
14 | CC1(C)[C@@H]2[C@H]3C(=O)N[C@H](C#N)C[C@@H]4C(=O)NCC[C@@H]4CCCC[C@H](NC(=O)c4ccc(F)cc4F)C(=O)N3C[C@@H]21 [Example 129] | < 100 nM | < 100 nM
15 | Cc1cc(C(=O)N[C@H]2CCCC[C@H]3CNC(=O)[C@H]3C[C@@H](C#N)NC(=O)[C@@H]3[C@@H]4[C@H](CN3C2=O)C4(C)C)no1 [Example 122] | < 100 nM | < 100 nM
16 | CC(C)(C)OC(=O)N[C@H]1CCCC[C@H]2CNC(=O)[C@H]2C[C@@H](C#N)NC(=O)[C@@H]2CCCCCN2C1=O [Example 143] | 100 to 1000 nM | 100 to 1000 nM
17 | CC1(C)[C@@H]2[C@H]3C(=O)N[C@H](C#N)C[C@@H]4C(=O)NC[C@@H]4CCCC[C@H](NC(=O)c4cc(Cl)ccc4Cl)C(=O)N3C[C@@H]21 [Example 133] | < 100 nM | < 100 nM
18 | CC(C)(C)C[C@@H]1NC(=O)[C@@H](NC(=O)c2ccc(Cl)c(Cl)c2)CCCC[C@H]2CNC(=O)[C@H]2C[C@@H](C#N)NC1=O [Example 136] | < 100 nM | < 100 nM
19 | CC1(C)[C@@H]2[C@H]3C(=O)N[C@H](C#N)C[C@@H]4C(=O)NC[C@@H]4CCCC[C@H](NS(=O)(=O)C(F)(F)F)C(=O)N3C[C@@H]21 [Example 158] | < 100 nM | < 100 nM
20 | CC1(C)[C@@H]2[C@H]3C(=O)N[C@H](C#N)C[C@@H]4C(=O)NC[C@@H]4CCCC[C@H](NC(=O)C45CCC(C4)C5)C(=O)N3C[C@@H]21 [Example 148] | < 100 nM | 100 to 1000 nM
21 | CC(C)(C)C(=O)N[C@H]1CCCC[C@H]2CNC(=O)[C@H]2C[C@@H](C#N)NC(=O)[C@@H]2CCCCN2C1=O [Example 71] | 1000 to 20000 nM | 1000 to 20000 nM
22 | CC1(C)[C@@H]2[C@H]3C(=O)N[C@H](C#N)C[C@@H]4C(=O)NC[C@@H]4CCCC[C@H](NC(=O)OC4CCCC4)C(=O)N3C[C@@H]21 [Example 75] | < 100 nM | < 100 nM
23 | CC(C)(C)OC(=O)N[C@H]1CCCC[C@H]2CNC(=O)[C@H]2C[C@@H](C#N)NC(=O)[C@@H]2CC3(CCN2C1=O)CC3 [Example 132] | < 100 nM | 100 to 1000 nM
24 | CC(C)C[C@@H]1NC(=O)[C@H](Cc2ccccc2)CCC[C@H]2CNC(=O)[C@H]2C[C@@H](C=O)NC1=O [Example 12] | 100 to 1000 nM | 1000 to 20000 nM

Row | Structure (SMILES) | IC50 (SARS-CoV-2 3CLpro) | IC50 (MERS-CoV 3CLpro)
25 | CC(C)(C(=O)N[C@H]1CCCC[C@H]2CNC(=O)[C@H]2C[C@@H](C#N)NC(=O)[C@@H]2[C@@H]3[C@H](CN2C1=O)C3(C)C)c1ccc(Cl)cc1 [Example 121] | < 100 nM | 100 to 1000 nM
26 | CC1(C)[C@@H]2[C@H]3C(=O)N[C@H](C#N)C[C@@H]4C(=O)NC[C@@H]4CCCC[C@H](NC(=O)c4ccc(F)cc4)C(=O)N3C[C@@H]21 [Example 82] | < 100 nM | < 100 nM
27 | CN1C(=O)[C@@H](NC(=O)C(C)(C)C)CCCC[C@H]2CNC(=O)[C@H]2C[C@@H](C#N)NC(=O)[C@@H]1CC(C)(C)C [Example 78] | < 100 nM | 1000 to 20000 nM
28 | CC1(C)[C@@H]2[C@H]3C(=O)N[C@H](C#N)C[C@@H]4C(=O)NC[C@@H]4CCCC[C@H](NC(=O)c4cncnc4)C(=O)N3C[C@@H]21 [Example 107] | < 100 nM | < 100 nM
29 | CC1(C)[C@@H]2[C@H]3C(=O)N[C@H](C#N)C[C@@H]4C(=O)NC[C@@H]4CCCC[C@H](NC(=O)C4CCC4)C(=O)N3C[C@@H]21 [Example 76] | < 100 nM | 100 to 1000 nM
30 | CC1(C)[C@@H]2[C@H]3C(=O)N[C@H](C#N)C[C@@H]4C(=O)NC[C@@H]4CCCC[C@H](NC(=O)c4cccc(Cl)c4Cl)C(=O)N3C[C@@H]21 [Example 134] | < 100 nM | < 100 nM
31 | CC1(C)[C@@H]2[C@H]3C(=O)N[C@H](C#N)C[C@@H]4C(=O)NC[C@@H]4CCCC[C@H](NC(=O)c4cc(C(F)(F)F)on4)C(=O)N3C[C@@H]21 [Example 153] | < 100 nM | 100 to 1000 nM
32 | CC(C)C[C@@H]1NC(=O)C(OC2CCCCC2)CCC[C@H]2CNC(=O)[C@@H]2C[C@@H](C#N)NC1=O (stereo partly drawn) [Example 23] | > 20000 nM | > 20000 nM
33 | CC(C)C[C@@H]1NC(=O)[C@@H](OC(C)(C)C)CCC[C@H]2CNC(=O)[C@@H]2C[C@@H](C=O)NC1=O [Example 20] | 1000 to 20000 nM | > 20000 nM
34 | N#C[C@@H]1C[C@@H]2C(=O)NC[C@@H]2CCCC[C@H](NC(=O)C2(C(F)(F)F)CC2)C(=O)N2CCC3(CC3)C[C@H]2C(=O)N1 [Example 151] | < 100 nM | 100 to 1000 nM
35 | CC(C)C[C@@H]1NC(=O)CCCCCC[C@@H]2CNC(=O)[C@H]2C[C@@H](C=O)NC1=O [Example 47] | 1000 to 20000 nM | > 20000 nM
36 | CC(C)(C)OC(=O)N[C@H]1CC/C=C/[C@H]2CNC(=O)[C@H]2C[C@@H](C#N)NC(=O)[C@@H]2[C@H]3CCC[C@H]3CN2C1=O [Example 112] | < 100 nM | 100 to 1000 nM
37 | CC(C)(C)C(=O)N[C@H]1C/C=C\[C@H]2CNC(=O)[C@H]2C[C@@H](C#N)NC(=O)[C@@H]2[C@@H]3[C@H](CN2C1=O)C3(C)C [Example 64] | > 20000 nM | > 20000 nM
38 | CC1(C)[C@@H]2[C@H]3C(=O)N[C@H](C#N)C[C@H]4C(=O)NC[C@@H]4CCCCC(=O)N3C[C@@H]21 [Example 25] | 1000 to 20000 nM | 1000 to 20000 nM
39 | CC(C)(C)C(=O)N[C@H]1CCCC[C@H]2CCNC(=O)[C@H]2C[C@@H](C#N)NC(=O)[C@@H]2[C@@H]3[C@H](CN2C1=O)C3(C)C [Example 69] | < 100 nM | 100 to 1000 nM
40 | CC1(C)[C@@H]2[C@H]3C(=O)N[C@H](C#N)C[C@@H]4C(=O)NC[C@@H]4CCCC[C@H](NC(=O)c4ccc(F)cc4C(F)(F)F)C(=O)N3C[C@@H]21 [Example 139] | < 100 nM | < 100 nM
41 | CC(C)(C)OC(=O)N[C@H]1CCC[C@H]2CCNC(=O)[C@H]2C[C@@H](C#N)NC(=O)[C@@H]2[C@H]3CCC[C@H]3CN2C1=O [Example 100] | 1000 to 20000 nM | 1000 to 20000 nM
42 | CC1(C)[C@@H]2[C@H]3C(=O)N[C@H](C#N)C[C@@H]4C(=O)NC[C@@H]4CCCC[C@H](NC(=O)C4CC5(CCC5)C4)C(=O)N3C[C@@H]21 (stereo partly drawn) [Example 81] | < 100 nM | 100 to 1000 nM
43 | CC1(C)[C@@H]2[C@H]3C(=O)N[C@H](C#N)C[C@@H]4C(=O)NC[C@@H]4CCCC[C@H](NC(=O)c4ccc(Cl)c(Cl)c4)C(=O)N3C[C@@H]21 [Example 120] | < 100 nM | < 100 nM
44 | CC(C)C[C@@H]1NC(=O)[C@@H](NC(=O)OC(C)(C)C)CCC[C@@H]2CNC(=O)[C@@H]2C[C@@H](C=O)NC1=O [Example 16] | 100 to 1000 nM | 1000 to 20000 nM
45 | CC1(C)[C@@H]2[C@H]3C(=O)N[C@H](C#N)C[C@@H]4C(=O)NC[C@@H]4CCCC[C@H](Nc4nccc(C(F)(F)F)n4)C(=O)N3C[C@@H]21 [Example 162] | < 100 nM | 100 to 1000 nM
46 | CC(C)(C)OC(=O)N[C@H]1CC/C=C\[C@H]2CCNC(=O)[C@H]2C[C@@H](C#N)NC(=O)[C@@H]2[C@@H]3[C@H](CN2C1=O)C3(C)C [Example 114] | < 100 nM | 100 to 1000 nM
47 | CC(C)C[C@@H]1NC(=O)[C@@H](NC(=O)OC(C)(C)C)CCC[C@H]2CNC(=O)[C@@H]2C[C@@H](C=O)NC1=O [Example 19] | < 100 nM | 100 to 1000 nM
48 | CC(C)C[C@@H]1NC(=O)[C@@H](NC(=O)C(C)(C)C)CCCC[C@H]2CNC(=O)[C@H]2C[C@@H](C#N)NC1=O [Example 44] | < 100 nM | 100 to 1000 nM

Reference: patent US20260325540A1 (priority 2023, published 2026)
